# In US20040131567A1 (priority 2002, published 2004):
# Tests used:
# [1] = tested on: Bacillus anthracis Ames strain; type: cell-based
# [2] = tested on: Paenibacillus polymyxa, Bacillus licheniformis, Bacillus subtilis, Bacillus sphaericus, Bacillus cereus and a wild Bacillus strain; type: cell-based, Bacillus species; settings: for average zone of inhibition: 3 replicate assays
# [3] = tested on: Bacillus anthracis Stearns strain; type: cell-based
# psoriasis = settings: in vivo
# [4] = tested on: dry/cracking and scaly elbows; type: in vivo, human; settings: regimen tried prior to the inventive composition
# Escherichia coli = type: cell-based; parameters: key: NG = no growth; settings: E. coli >10^5 CFU/ml inoculated into 2 ml d-limonene
# Enterobacter cloacae = type: cell-based; parameters: key: NG = no growth
# Serratia marcescens = type: cell-based; parameters: key: NG = no growth
# Enterococcus faecium = type: cell-based; parameters: key: NG = no growth; settings: E. faecium >10^5 CFU/ml inoculated into 2 ml d-limonene
# Enterococcus faecalis = type: cell-based; parameters: key: NG = no growth; settings: E. faecalis >10^5 CFU/ml inoculated into 2 ml d-limonene
# [5] = tested on: Staphylococcus epidermidis; type: cell-based; parameters: key: NG = no growth; settings: S. epidermidis >10^5 CFU/ml inoculated into 2 ml d-limonene
# [6] = tested on: Acinetobacter baummii/haemolyticus; type: cell-based; parameters: key: NG = no growth; settings: Ac. baum/haemo >10^5 CFU/ml inoculated into 2 ml d-limonene
# Klebsiella pneumoniae = type: cell-based; parameters: key: NG = no growth; settings: K. pneumoniae >10^5 CFU/ml inoculated into 2 ml d-limonene
# [7] = tested on: Staphylococcus aureus, Staphylococcus epidermidis, Streptococcus pyogenes, Streptococcus mutans, other beta hemolytic streptococci, Entercoccus faecalis …; type: cell-based; settings: in vitro
# Staphylococcus aureus = type: cell-based; parameters: key: NG = no growth; settings: S. aureus >10^5 CFU/ml inoculated into 2 ml d-limonene
# [8] = tested on: gram-positive and gram-negative pathogens; type: cell-based
# [9] = tested on: Stenotrophomonas maltophila; type: cell-based; parameters: key: NG = no growth
# [10] = tested on: Escherichia coli, Enterobactor cloacae, Klebsiella pneumoniae, Serratia marcescens, Pseudomonas aeruginosa, Acinetobacter baummii/haemolyticus, Paenibacillus …; type: cell-based; settings: in vitro
# [11] = tested on: Bacillus licheniformis, B. sphaericus, Bacillus cereus, Bacillus subtilus, Bacillus anthracis (Stearns and Ames strains); type: cell-based, Bacillus species
# Pseudomonas aeruginosa = type: cell-based; parameters: key: NG = no growth; settings: P. aeruginosa >10^5 CFU/ml inoculated into 2 ml d-limonene
molecule,measurement,setting,value
"O=[N+]([O-])[O-].[Ag+] [AgNO3, silver nitrate]",zone of inhibition,[1],16 mm
same,average zone of inhibition,[2]; six Bacillus strains,16 mm
same,zone of inhibition (average inhibition zone),[3],18 mm
O=C(O)c1cn(C2CC2)c2cc(N3CCNCC3)c(F)cc2c1=O [CIPRO],effect of earlier treatments on the psoriasis,psoriasis,Neither treatment was effective
same,side effects,psoriasis,unpleasant side effects
"NC(=O)N/N=C/c1ccc([N+](=O)[O-])o1 [Furacin, nitrofurazone]",average zone of inhibition,[2]; six Bacillus strains,35 mm
"OCl [NaOCl, sodium hypochlorite]",zone of inhibition,[1],no zones of inhibition
same,average zone size,"[2]; only the inhibited strains P. Polymyxa, B. sphaericus and B. cereus",16 mm
same,inhibition of the Bacillus strains (which strains),[2]; six Bacillus strains,"only inhibited P. Polymyxa, B. sphaericus and B. cereus"
same,susceptibility of the strain to the product,[3],susceptible to all products tested except
COc1cc(C)c(/C=C/C(C)=C/C=C/C(C)=C/C(=O)O)c(C)c1C [SORIATANE],effect of earlier treatments on the psoriasis,psoriasis,Neither treatment was effective
same,side effects,psoriasis,unpleasant side effects
NCc1ccc(S(N)(=O)=O)cc1 [mafenide acetate],susceptibility of the strain to the product,[1],susceptible
same,average zone of inhibition,[2]; six Bacillus strains,36 mm
same,susceptibility of the strain to the product,[3],susceptible
Vitamin E,effect of earlier treatments on the psoriasis,psoriasis,no results
same,effect of earlier regimen on the condition,[4],no improvement
d-limonene,zone of inhibition,[1],21 mm
same,Growth at 24 hr,Escherichia coli; 24 hr,NG
same,Growth at 48 hr,Escherichia coli; 48 hr,NG
same,Growth at 72 hr,Escherichia coli; 72 hr,NG
same,Growth at 24 hr,Enterobacter cloacae,NG
same,Growth at 48 hr,Enterobacter cloacae,NG
same,Growth at 72 hr,Enterobacter cloacae,NG
same,Growth at 24 hr,Serratia marcescens,NG*
same,Growth at 48 hr,Serratia marcescens,NG
same,Growth at 72 hr,Serratia marcescens,NG
same,Growth at 24 hr,Enterococcus faecium; 24 hr,NG
same,Growth at 48 hr,Enterococcus faecium; 48 hr,NG
same,Growth at 72 hr,Enterococcus faecium; 72 hr,NG
same,Growth at 24 hr,Enterococcus faecalis; 24 hr,NG
same,Growth at 48 hr,Enterococcus faecalis; 48 hr,NG
same,Growth at 72 hr,Enterococcus faecalis; 72 hr,NG
same,Growth at 24 hr,[5]; 24 hr,NG
same,Growth at 48 hr,[5]; 48 hr,NG
same,Growth at 72 hr,[5]; 72 hr,NG
same,Growth at 24 hr,[6]; 24 hr,NG
same,Growth at 48 hr,[6]; 48 hr,NG
same,Growth at 72 hr,[6]; 72 hr,NG
same,Growth at 24 hr,Klebsiella pneumoniae; 24 hr,NG
same,Growth at 48 hr,Klebsiella pneumoniae; 48 hr,NG
same,Growth at 72 hr,Klebsiella pneumoniae; 72 hr,NG
same,average zone of inhibition,[2]; six Bacillus strains,21 mm
same,effectiveness in eradicating gram-positive pathogens,[7],effective in eradicating
same,Growth at 24 hr,Staphylococcus aureus; 24 hr,NG*
same,Growth at 48 hr,Staphylococcus aureus; 48 hr,NG
same,Growth at 72 hr,Staphylococcus aureus; 72 hr,NG
same,effectiveness in killing or inhibiting growth of gram-positive and gram-negative bacteria,[8],effective in killing or inhibiting the growth
same,time within which all pathogens tested were effectively eradicated,[8],≤ 24 h
same,Growth at 24 hr,[9],NG
same,Growth at 48 hr,[9],NG
same,Growth at 72 hr,[9],NG
same,effectiveness in eradicating gram-negative pathogens,[10],effective in eradicating
same,effectiveness in eradicating Bacillus species,[11],effective in eradicating
same,zone of inhibition (average inhibition zone),[3],30 mm
same,Growth at 24 hr,Pseudomonas aeruginosa; 24 hr,NG
same,Growth at 48 hr,Pseudomonas aeruginosa; 48 hr,NG
same,Growth at 72 hr,Pseudomonas aeruginosa; 72 hr,NG
